Consider four molecules from ChEMBL document CHEMBL5233278, “Recent Advances in the Medicinal Chemistry of Farnesoid X Receptor” (J Med Chem, 2021).

Broadly, the EC50 is the concentration giving half of the maximal effect. The term half-life denotes the time in which the quantity being followed falls by half.

Bounds are passed on as bounds.

The target in data set [1] is T1, Peroxisome proliferator-activated receptor delta (Homo sapiens, UniProt Q03181).
T1 sequence (Q03181 whole entry): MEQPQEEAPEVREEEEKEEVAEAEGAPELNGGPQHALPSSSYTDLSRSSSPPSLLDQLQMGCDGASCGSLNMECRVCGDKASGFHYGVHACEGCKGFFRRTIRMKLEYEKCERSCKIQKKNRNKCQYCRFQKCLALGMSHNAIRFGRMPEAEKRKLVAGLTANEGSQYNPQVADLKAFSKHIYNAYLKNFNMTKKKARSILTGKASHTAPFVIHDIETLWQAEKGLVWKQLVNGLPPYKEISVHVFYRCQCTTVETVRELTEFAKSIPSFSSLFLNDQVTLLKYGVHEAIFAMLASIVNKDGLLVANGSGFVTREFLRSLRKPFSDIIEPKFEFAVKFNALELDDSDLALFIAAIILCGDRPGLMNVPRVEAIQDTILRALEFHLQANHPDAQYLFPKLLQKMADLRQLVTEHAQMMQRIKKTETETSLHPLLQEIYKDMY
As to the kind of experiment: Agonist activity at human PPARdelta expressed in HEK293T cells incubated for 12 to 14 hrs by Dual-Glo luciferase assay. It counts as cell-based.

Data set [2] addresses T2, Bile acid receptor (Homo sapiens, UniProt Q96RI1).
T2 sequence (Q96RI1 whole entry): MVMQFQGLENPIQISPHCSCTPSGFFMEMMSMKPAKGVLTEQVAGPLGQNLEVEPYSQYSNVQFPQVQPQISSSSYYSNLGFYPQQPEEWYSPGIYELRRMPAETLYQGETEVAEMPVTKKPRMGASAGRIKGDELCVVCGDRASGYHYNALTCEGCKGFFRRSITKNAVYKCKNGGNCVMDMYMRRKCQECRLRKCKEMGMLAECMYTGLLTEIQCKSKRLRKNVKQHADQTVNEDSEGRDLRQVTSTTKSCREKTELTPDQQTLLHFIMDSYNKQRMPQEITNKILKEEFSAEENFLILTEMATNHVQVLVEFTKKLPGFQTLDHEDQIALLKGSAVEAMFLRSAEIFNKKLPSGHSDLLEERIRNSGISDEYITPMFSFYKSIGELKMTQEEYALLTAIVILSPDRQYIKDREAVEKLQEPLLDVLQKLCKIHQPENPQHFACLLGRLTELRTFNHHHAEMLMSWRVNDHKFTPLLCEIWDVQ
As to the kind of experiment: Agonist activity at FXR in human HeLa cells incubated for 24 hrs by Dual-Glo luciferase assay. The data set is classed as cell-based.

Data set [3] can be described thus: Stability in human plasma assessed as half life. It counts as ADME, cell-free.
Data set [4] deals with T2, Bile acid receptor. As to the kind of experiment: Agonist activity at FXR in HEK293T cells incubated for 24 hrs by Steady-Glo luciferase assay. It counts as cell-based.
The target in data set [5] is T2, Bile acid receptor. As to the kind of experiment: Agonist activity at human FXR in expressed in CHO cells by luciferase reporter assay. The data set is classed as cell-based. A general note: Reporter assays use an easily measured gene product as a stand-in for the process of interest.

Turning to `CC(C)c1onc(-c2c(Cl)cccc2Cl)c1COc1ccc(CNc2ccc(CC(=O)O)cc2)c(Cl)c1`, the EC50 in data set [1] turned out to be 1500 nM; in data set [2] it was 940 nM.

Take `Cc1ccc(Cl)cc1N1CCN(C(=O)C23CC4CC(CC(C4)C2)C3)CC1`: in data set [3], the half-life is over 8.33 h.

`CC(C)COc1ccc(-c2nnc(-c3ccc(C(=O)O)cc3)o2)cc1` showed a 50% effective concentration (EC50) in data set [4] of 205 nM.

In the case of `CC[C@H]1[C@@H](O)[C@@H]2[C@H](CC[C@]3(C)[C@@H]([C@H](C)COC(=O)NS(=O)(=O)c4ccc(OC(C)C)cc4)CC[C@@H]23)[C@@]2(C)CC[C@@H](O)C[C@@H]12`, in data set [5], the EC50 is under 1 nM.
